Consider 30 compounds from ChEMBL document CHEMBL1131561, “Peptidomimetic aminomethylene ketone inhibitors of interleukin-1 beta-converting enzyme (ICE)” (Bioorg Med Chem Lett, 1998).

The assay concerns the target T1, Caspase-1 (Homo sapiens, UniProt P29466).
T1 sequence (P29466 whole entry): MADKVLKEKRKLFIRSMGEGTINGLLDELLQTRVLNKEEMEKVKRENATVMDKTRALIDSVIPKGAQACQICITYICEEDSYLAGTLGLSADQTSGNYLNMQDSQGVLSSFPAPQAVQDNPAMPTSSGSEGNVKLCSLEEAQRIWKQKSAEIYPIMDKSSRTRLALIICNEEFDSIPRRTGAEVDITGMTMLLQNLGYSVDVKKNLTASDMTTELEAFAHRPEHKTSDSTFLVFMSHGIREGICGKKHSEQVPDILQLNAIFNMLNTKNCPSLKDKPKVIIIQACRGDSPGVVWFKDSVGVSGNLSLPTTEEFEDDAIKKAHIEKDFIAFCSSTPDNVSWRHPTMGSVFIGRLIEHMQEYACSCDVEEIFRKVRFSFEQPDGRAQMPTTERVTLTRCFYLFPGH
Description: Inhibition of human recombinant IL-1 beta converting enzyme.
As for `CCC(C(=O)N[C@@H](CC(=O)O)C(=O)CNCCc1ccccc1)n1cccc(NC(=O)c2ccc3ccccc3c2)c1=O` (stereo not given in full), the Ki was 0.37 nM.
In the case of `CCC(C(=O)NC(CC(=O)O)C(=O)CN1CCN(C)CC1)n1cccc(NC(=O)c2ccc3ccccc3c2)c1=O` (stereo not given), the Ki worked out at 62.5 nM.
As for `CCC(C(=O)N[C@@H](CC(=O)O)C(=O)CN(C)Cc1ccccc1)n1cccc(NC(=O)c2ccc3ccccc3c2)c1=O` (stereo not given in full), the figure is 58 nM; as for `CCC(C(=O)NC(CC(=O)O)C(=O)CN1CCSCC1)n1cccc(NC(=O)c2ccc3ccccc3c2)c1=O` (stereo not given), 11.2 nM; as for `CCC(C(=O)NC(CC(=O)O)C(=O)Cn1ccc(=O)cc1)n1cccc(NC(=O)c2ccc3ccccc3c2)c1=O` (stereo not given), 395 nM.
Consider `CCOC(=O)C1CCN(CC(=O)C(CC(=O)O)NC(=O)C(CC)n2cccc(NC(=O)c3ccc4ccccc4c3)c2=O)CC1` (stereo not given), for which the Ki was 8 nM.
The figure for `CCC(C(=O)NC(CC(=O)O)C(=O)CN1CCOCC1)n1cccc(NC(=O)c2ccc3ccccc3c2)c1=O` (stereo not given) is 45 nM; for `CCCC(=O)NCC(=O)C(CC(=O)O)NC(=O)C(CC)n1cccc(NC(=O)c2ccc3ccccc3c2)c1=O` (stereo not given) it is 81 nM; for `CCC(C(=O)N[C@@H](CC(=O)O)C(=O)CN[C@@H](Cc1ccccc1)C(N)=O)n1cccc(NC(=O)c2ccc3ccccc3c2)c1=O` (stereo not given in full) it is 78 nM.
As for `CCC(C(=O)NC(CC(=O)O)C(=O)CN1CCNCC1)n1cccc(NC(=O)c2ccc3ccccc3c2)c1=O` (stereo not given), the figure is 410 nM.
As for `CCCCN(C)CC(=O)[C@H](CC(=O)O)NC(=O)C(CC)n1cccc(NC(=O)c2ccc3ccccc3c2)c1=O` (stereo not given in full), the figure is 3.1 nM.
As to `CCC(C(=O)NC(CC(=O)O)C(=O)CNC(C)=O)n1cccc(NC(=O)c2ccc3ccccc3c2)c1=O` (stereo not given), the Ki was determined as 117 nM.
With `CCC(C(=O)N[C@@H](CC(=O)O)C(=O)CN(C)CCCC(N)=O)n1cccc(NC(=O)c2ccc3ccccc3c2)c1=O` (stereo not given in full), the Ki amounted to 37 nM.
For `CCCCN(CC)CC(=O)[C@H](CC(=O)O)NC(=O)C(CC)n1cccc(NC(=O)c2ccc3ccccc3c2)c1=O` (stereo not given in full), the Ki worked out at 2.3 nM.
For `CCCCCCN(C)CC(=O)[C@H](CC(=O)O)NC(=O)C(CC)n1cccc(NC(=O)c2ccc3ccccc3c2)c1=O` (stereo not given in full), the inhibition constant Ki turned out to be 1.79 nM.
As for `CCC(C(=O)NC(CC(=O)O)C(=O)CN1CCCCC1)n1cccc(NC(=O)c2ccc3ccccc3c2)c1=O` (stereo not given), the figure is 4 nM.
Regarding `CCC(C(=O)NC(CC(=O)O)C(=O)CNC(=O)c1ccccc1)n1cccc(NC(=O)c2ccc3ccccc3c2)c1=O` (stereo not given), the Ki stood at 57.5 nM.
As for `CCCCNCC(=O)[C@H](CC(=O)O)NC(=O)C(CC)n1cccc(NC(=O)c2ccc3ccccc3c2)c1=O` (stereo not given in full), the figure is 0.76 nM; as for `CCCCCC(=O)NCC(=O)C(CC(=O)O)NC(=O)C(CC)n1cccc(NC(=O)c2ccc3ccccc3c2)c1=O` (stereo not given), 34.3 nM; as for `CCCCCCNCC(=O)[C@H](CC(=O)O)NC(=O)C(CC)n1cccc(NC(=O)c2ccc3ccccc3c2)c1=O` (stereo not given in full), 0.85 nM.
As for `CCC(C(=O)N[C@@H](CC(=O)O)C(=O)CN(C)[C@@H](Cc1ccccc1)C(N)=O)n1cccc(NC(=O)c2ccc3ccccc3c2)c1=O` (stereo not given in full), the figure is 255 nM.
As to `CCC(C(=O)N[C@@H](CC(=O)O)C(=O)CN(C)CCc1ccccc1)n1cccc(NC(=O)c2ccc3ccccc3c2)c1=O` (stereo not given in full), the Ki was determined as 4.8 nM.
For `CCC(C(=O)N[C@@H](CC(=O)O)C(=O)CN[C@H](Cc1ccccc1)C(N)=O)n1cccc(NC(=O)c2ccc3ccccc3c2)c1=O` (stereo not given in full), the Ki was found to be 25 nM.
As for `CCCCCCN(CCCCCC)CC(=O)[C@H](CC(=O)O)NC(=O)C(CC)n1cccc(NC(=O)c2ccc3ccccc3c2)c1=O` (stereo not given in full), the figure is 2.39 nM; as for `CCC(C(=O)N[C@@H](CC(=O)O)C(=O)CNCCCc1ccccc1)n1cccc(NC(=O)c2ccc3ccccc3c2)c1=O` (stereo not given in full), 1.15 nM.
The figure for `CCC(C(=O)NC(CC(=O)O)C(=O)CN1CCC(C(N)=O)CC1)n1cccc(NC(=O)c2ccc3ccccc3c2)c1=O` (stereo not given) is 11.6 nM; for `CCC(C(=O)N[C@@H](CC(=O)O)C(=O)CNCc1ccccc1)n1cccc(NC(=O)c2ccc3ccccc3c2)c1=O` (stereo not given in full) it is 3.05 nM; for `CCC(C(=O)NC(CC(=O)O)C(=O)CN1CCCC1)n1cccc(NC(=O)c2ccc3ccccc3c2)c1=O` (stereo not given) it is 7.3 nM.
The figure for `CCC(C(=O)NC(CC(=O)O)C(=O)Cn1ccccc1=O)n1cccc(NC(=O)c2ccc3ccccc3c2)c1=O` (stereo not given) is 1650 nM; for `CCC(C(=O)N[C@@H](CC(=O)O)C(=O)CN(C)C)n1cccc(NC(=O)c2ccc3ccccc3c2)c1=O` (stereo not given in full) it is 22.8 nM.

A word on the Ki: it is the equilibrium dissociation constant of an inhibitor or competing ligand from its target.
